Test results reported in patent US10167262B2, “Herbicidal substituted 3-arylpyrazoles” (FMC CORPORATION, priority 2014, dated 2019).
Where two headings read alike, the source gives them in different places.

How the values were obtained:
Assay type in all cases: in vivo
corn (Zea mays) [1] = test: Test A pre-/postemergence greenhouse herbicide test, visual injury rating 0-100; details: for plant injury at 500 g/ha: 500 g ai/ha
Summary of the method: (§1)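 Visual injury versus untreated controls, scored about 10 days after treatment on a 0 to 100 scale (0 = no effect, 100 = complete control). Applications were preemergence directed soil spray plus postemergence spray at one- to two-leaf stage, 2 to 10 cm plants.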

[2] = system: large (Lg) crabgrass (Digitaria sanguinalis); test: as above; details: for pest or weed control at 500 g/ha: 500 g ai/ha
Summary of the method: as §1

[3] = system: wheat (Triticum aestivum); test: as above
Summary of the method: as §1

[4] = system: barnyardgrass (Echinochloa crus-galli); test: as above; details: for pest or weed control at 500 g/ha: 500 g ai/ha
Summary of the method: as §1

[5] = system: giant foxtail (Setaria faberii); test: as above; details: for pest or weed control at 500 g/ha: 500 g ai/ha
Summary of the method: as §1

[6] = system: velvetleaf (Abutilon theophrasti); test: as above; details: for pest or weed control at 500 g/ha: 500 g ai/ha
Summary of the method: as §1

[7] = system: morningglory (Ipomoea spp.); test: as above; details: for pest or weed control at 500 g/ha: 500 g ai/ha
Summary of the method: as §1

[8] = system: pigweed (Amaranthus retroflexus); test: as above; details: for pest or weed control at 500 g/ha: 500 g ai/ha
Summary of the method: as §1

corn (Zea mays) [9] = test: Test C pre-/postemergence greenhouse test, plant response rating 0-100; details: Zea mays, post-emergence, Postemergence
Summary of the method: (§2)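 Scores run from 0, no effect, to 100, complete control, assigned by eye after treated plants and controls spent 13 to 15 days in a greenhouse. Soil-applied treatment went onto freshly sown seed in loam and sand; foliar treatment hit seedlings at the 1- to 4-leaf stage.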

[10] = system: Italian ryegrass (Lolium multiflorum); test: as above; details: Lolium multiflorum, post-emergence, Postemergence
Summary of the method: as §2

[11] = system: velvetleaf (Abutilon theophrasti); test: as above; details: Abutilon theophrasti, post-emergence, Postemergence
Summary of the method: as §2

[12] = system: ragweed (common ragweed, Ambrosia elatior); test: as above; details: Ambrosia artemisiifolia, post-emergence, Postemergence
Summary of the method: as §2

[13] = system: pigweed (Amaranthus retroflexus); test: as above; details: Amaranthus retroflexus, post-emergence, Postemergence
Summary of the method: as §2

CCCn1cc(C(=O)c2ccccc2)c(-c2cc(Cl)cc(Cl)c2)n1 [Compound 61, [3-(3,5-dichlorophenyl)-1-propyl-1H-pyrazol-4-yl]phenylmethanone]
Corn plant response rating (0 = no effect, 100 = complete control) (corn (Zea mays) [1]; Preemergence, 125 g ai/ha): 0
plant injury at 125 g/ha (corn (Zea mays) [1]; Zea mays, post-emergence, 240 h, Postemergence, 125 g ai/ha, read-out: Plant response rating (0 to 100 scale), Corn): 0%
plant injury at 500 g/ha (corn (Zea mays) [1]; Zea mays, post-emergence, 240 h, Postemergence, read-out: Plant response rating (0 to 100 scale), Corn): 0%
plant injury at 500 g/ha (corn (Zea mays) [1]; Zea mays, pre-emergence, 240 h, Preemergence, read-out: Plant response rating (0 to 100 scale), Corn): 0%
pest or weed control at 125 g/ha ([2]; Digitaria sanguinalis, post-emergence, 240 h, Postemergence, 125 g ai/ha, read-out: Plant response rating (0 to 100 scale), Crabgrass, Large): 0%
pest or weed control at 500 g/ha ([2]; Digitaria sanguinalis, post-emergence, 240 h, Postemergence, read-out: Plant response rating (0 to 100 scale), Crabgrass, Large): 0%
pest or weed control at 500 g/ha ([2]; Digitaria sanguinalis, pre-emergence, 240 h, Preemergence, read-out: Plant response rating (0 to 100 scale), Crabgrass, Large): 0%
Crabgrass, Large plant response rating (0 = no effect, 100 = complete control) ([2]; Preemergence, 125 g ai/ha): 0
Wheat plant response rating (0 = no effect, 100 = complete control) ([3]; Preemergence, 125 g ai/ha): 0
plant injury at 125 g/ha ([3]; Triticum aestivum, post-emergence, 240 h, Postemergence, 125 g ai/ha, read-out: Plant response rating (0 to 100 scale), Wheat): 0%
plant injury at 500 g/ha ([3]; Triticum aestivum, post-emergence, 240 h, Postemergence, 500 g ai/ha, read-out: Plant response rating (0 to 100 scale), Wheat): 0%
pest or weed control at 125 g/ha ([4]; Echinochloa crus-galli, post-emergence, 240 h, Postemergence, 125 g ai/ha, read-out: Plant response rating (0 to 100 scale), Barnyardgrass): 0%
pest or weed control at 500 g/ha ([4]; Echinochloa crus-galli, post-emergence, 240 h, Postemergence, read-out: Plant response rating (0 to 100 scale), Barnyardgrass): 0%
pest or weed control at 500 g/ha ([4]; Echinochloa crus-galli, pre-emergence, 240 h, Preemergence, read-out: Plant response rating (0 to 100 scale), Barnyardgrass): 0%
Barnyardgrass plant response rating (0 = no effect, 100 = complete control) ([4]; Preemergence, 125 g ai/ha): 0
Foxtail, Giant plant response rating (0 = no effect, 100 = complete control) ([5]; Preemergence, 125 g ai/ha): 0
pest or weed control at 125 g/ha ([5]; Setaria faberi, post-emergence, 240 h, Postemergence, 125 g ai/ha, read-out: Plant response rating (0 to 100 scale), Foxtail, Giant): 0%
pest or weed control at 500 g/ha ([5]; Setaria faberi, post-emergence, 240 h, Postemergence, read-out: Plant response rating (0 to 100 scale), Foxtail, Giant): 0%
pest or weed control at 500 g/ha ([5]; Setaria faberi, pre-emergence, 240 h, Preemergence, read-out: Plant response rating (0 to 100 scale), Foxtail, Giant): 0%
pest or weed control at 125 g/ha ([6]; Abutilon theophrasti, post-emergence, 240 h, Postemergence, 125 g ai/ha, read-out: Plant response rating (0 to 100 scale), Velvetleaf): 80%
pest or weed control at 500 g/ha ([6]; Abutilon theophrasti, post-emergence, 240 h, Postemergence, read-out: Plant response rating (0 to 100 scale), Velvetleaf): 90%
pest or weed control at 500 g/ha ([6]; Abutilon theophrasti, pre-emergence, 240 h, Preemergence, read-out: Plant response rating (0 to 100 scale), Velvetleaf): 40%
Velvetleaf plant response rating (0 = no effect, 100 = complete control) ([6]; Preemergence, 125 g ai/ha): 0
pest or weed control at 125 g/ha ([7]; Ipomoea, post-emergence, 240 h, Postemergence, 125 g ai/ha, read-out: Plant response rating (0 to 100 scale), Morningglory): 0%
pest or weed control at 500 g/ha ([7]; Ipomoea, post-emergence, 240 h, Postemergence, read-out: Plant response rating (0 to 100 scale), Morningglory): 0%
pest or weed control at 500 g/ha ([7]; Ipomoea, pre-emergence, 240 h, Preemergence, read-out: Plant response rating (0 to 100 scale), Morningglory): 0%
Morningglory plant response rating (0 = no effect, 100 = complete control) ([7]; Preemergence, 125 g ai/ha): 0
pest or weed control at 125 g/ha ([8]; Amaranthus retroflexus, post-emergence, 240 h, Postemergence, 125 g ai/ha, read-out: Plant response rating (0 to 100 scale), Pigweed): 80%
pest or weed control at 500 g/ha ([8]; Amaranthus retroflexus, post-emergence, 240 h, Postemergence, read-out: Plant response rating (0 to 100 scale), Pigweed): 90%
pest or weed control at 500 g/ha ([8]; Amaranthus retroflexus, pre-emergence, 240 h, Preemergence, read-out: Plant response rating (0 to 100 scale), Pigweed): 90%
Pigweed plant response rating (0 = no effect, 100 = complete control) ([8]; Preemergence, 125 g ai/ha): 0
plant injury at 31 g/ha (corn (Zea mays) [9]; 31 g ai/ha): 5%
plant injury at 62 g/ha (corn (Zea mays) [9]; 62 g ai/ha): 5%
plant injury at 125 g/ha (corn (Zea mays) [9]; 125 g ai/ha): 5%
Corn plant response rating (crop injury, 0 = no effect, 100 = complete kill) at 250 g/ha (corn (Zea mays) [9]; 250 g ai/ha, scale 0 to 100): 5%
pest or weed control at 62 g/ha ([10]; 62 g ai/ha, read-out: Plant response rating (0 to 100), Ryegrass, Italian): 0%
pest or weed control at 125 g/ha ([10]; 125 g ai/ha, read-out: Plant response rating (0 to 100), Ryegrass, Italian): 0%
pest or weed control at 250 g/ha ([10]; 250 g ai/ha, scale 0 to 100): 0%
pest or weed control at 62 g/ha ([11]; 62 g ai/ha, read-out: Plant response rating (0 to 100), Velvetleaf): 40%
pest or weed control at 125 g/ha ([11]; 125 g ai/ha, read-out: Plant response rating (0 to 100), Velvetleaf): 75%
pest or weed control at 250 g/ha ([11]; 250 g ai/ha, scale 0 to 100): 75%
pest or weed control at 62 g/ha ([12]; 62 g ai/ha, read-out: Plant response rating (0 to 100), Ragweed): 10%
pest or weed control at 125 g/ha ([12]; 125 g ai/ha, read-out: Plant response rating (0 to 100), Ragweed): 40%
pest or weed control at 250 g/ha ([12]; 250 g ai/ha, scale 0 to 100): 40%
pest or weed control at 62 g/ha ([13]; 62 g ai/ha, read-out: Plant response rating (0 to 100), Pigweed): 100%
pest or weed control at 125 g/ha ([13]; 125 g ai/ha, read-out: Plant response rating (0 to 100), Pigweed): 100%
pest or weed control at 250 g/ha ([13]; 250 g ai/ha, scale 0 to 100): 100%
